Experimental data as given in patent publication US10682366B2, “Method for enhancing immunity using ginsenoside F1 as an active ingredient” (INTELLIGENT SYNTHETIC BIOLOGY CENTER, priority 2016, dated 2020).

Columns and labels:
[1] = tested on: primary natural killer cells; experiment: Analysis of cell-killing factors (perforin, granzyme B) by quantitative RT-PCR; type: cell-based, human; details: 12 hours after treatment
Method: To investigate a cell-killing activation mechanism of natural killer cells by ginsenoside F1, primary natural killer cells purified by the method of Example 3-1 were treated with ginsenoside F1 or Rg1. 12 hours later, total RNA was isolated, and then expressions of perforin and granzyme B which are representative cell-killing factors of natural killer cells were analyzed by quantitative RT-PCR.
In detail, total RNA was isolated from natural killer cells using a TRIzol reagent, and cDNA was synthesized using primers of unknown sequences, which were manufactured by Toyobo, and reverse transcriptase. Thereafter, quantitative RT-PCR was performed using primers of the following Table 1 and SYBR PCR Master Mix (Toyobo).
PCR conditions are the same as in the following Table 2.

[2] = tested on: primary natural killer cells; experiment: Cell-killing activity of primary natural killer cells (cytolysis of target cells); type: cell-based, human; details: for cytolysis of target cells: compared to DMSO-treated group
Source text: (§1) In detail, peripheral blood mononuclear cells (PBMCs) separated from the blood and purified natural killer cells were pretreated with ginsenoside F1 or Rg3, and then co-cultured with K562 cell or 721.221 cell which is an europium-labeled target cells. The natural killer cell and the target cell were mixed at a ratio of 5:1, 10:1, 20:1, and 40:1, followed by culture. Meanwhile, intensity of fluorescence emitted from the target cell is proportional to cell-killing activity of natural killer cell. Therefore, a culture medium was separated by centrifugation, and then fluorescence emitted by cell lysis of the target cell was measured by using a microplate reader.
Blood (50 ml) of a healthy donor was collected in a vacutainer cell preparation tube (BD Biosciences) containing sodium heparin. Thereafter, the blood was percoll-gradient centrifuged to recover a buffy coat which is a white thin layer consisted of platelets and white blood cells. Peripheral blood mononuclear cells obtained by washing this buffy coat with PBS were separated by using a human NK cell negative selection kit (Miltenyl Biotech). Part of the separated natural killer cells and a FACS buffer were mixed, and then purity of natural killer cells (CD3^−/CD16^+) and the number and ratio of CD56^dim/CD16^+, CD56^bright/CD16^−, and CD56^bright/CD16^+ were measured by using a FACS machine and fluorochrome-conjugated anti-CD3, anti-CD56, and […] antibodies. Natural killer cells with purity of 95% or more were used in experiments.
The primary natural killer cells separated by the method of Example 3-1 were used to examine whether ginsenoside F1 increases cell-killing activity of primary natural killer cells, in the same manner as in Example 2.

[3] = tested on: natural killer cell-sensitive RMA-S (MHC class I-) cells; experiment: In vivo natural killer cell-based selective reduction of RMA-S (RMA-S/RMA target cell system); details: mice pretreated at 25 mg/kg; for removability (selective reduction rate of RMA-S): RMA-S/RMA mixture intraperitoneal, 8 hours later, FACS
Method: To evaluate effectiveness of in vivo cell-killing activity of ginsenoside F1, natural killer cell-sensitive RMA-S (MHC class I^−) and natural killer cell-resistant RMA (MHC class I^+) target cell systems were used.
In detail, mice were pretreated with ginsenoside F1 at a dose of 25 mg/kg. A mixture of RMA-S/RMA cells, each cell labeled with different fluorescence intensity, was administered into the mice via intraperitoneal injection. 8 hours later, a selective reduction rate of RMA-S by natural killer cells was analyzed by FACS.

[4] = tested on: primary natural killer cells; experiment: Calcium flux assay by confocal live cell imaging; type: cell-based, human; details: activated with NKG2D antibody and 2B4 antibody; compared to ginsenoside Rg1
Method: To investigate a natural killer cell-based immune enhancement mechanism of ginsenoside F1 calcium flux assay of individual cells was performed by live cell imaging using confocal microscopy.
In detail, primary natural killer cells were purified (>97%) by the method of Example 3-1, and then treated with ginsenoside F1 or Rg1. For 30 seconds, a basal calcium level was measured, and then natural killer cells were activated using a combination of NKG2D antibody and 2B4 antibody, followed by calcium flux assay by confocal live cell imaging.

[5] = tested on: natural killer cells co-cultured with K562 cell or 721.221 cell; experiment: Cell-killing activity of natural killer cells (cytolysis of europium-labeled target cells); type: cell-based, human; details: pretreated NK cells; NK:target ratio 5:1, 10:1, 20:1, 40:1; K562 or 721.221; compared to DMSO-treated group
Method: In order to examine whether ginsenoside F1 increases cell-killing activity of natural killer cells, cytolysis of target cells was measured.
as §1

[6] = tested on: peripheral blood mononuclear cells (PBMCs) and natural killer cells; experiment: Degranulation activity of innate immune cells (CD107a expression by FACS); type: cell-based, human; details: cells pretreated with ginsenoside, co-cultured with K562 or 721.221 target cell; compared to DMSO (vehicle)-treated group
Method: Effect of ginsenoside F1 on degranulation activity of innate immune cells was measured by fluorescence activated cell sorter (FACS).
In detail, peripheral blood mononuclear cells (PBMCs) separated from the blood and purified natural killer cells were pretreated with ginsenoside, and then co-cultured with K562 cell or 721.221 cell which is a target cell of the above cells, respectively. Thereafter, the surfaces of the peripheral blood mononuclear cells and the natural killer cells were stained with fluorochrome-conjugated anti-CD3, anti-CD56, and anti-CD107a antibodies. Meanwhile, degranulation activity of peripheral blood mononuclear cells or natural killer cells is proportional to CD107a expression on cell surface, as shown in FIG. 1. Therefore, CD107a expression levels of the peripheral blood mononuclear cells and the natural killer cells were measured by a FACS machine.

| SMILES | expression level of granzyme B compared to ginsenoside Rg1-treated group [1] | expression level of perforin compared to ginsenoside Rg1-treated group [1] | expression level of granzyme B ([1]; compared to non-treated group) | expression level of perforin ([1]; compared to non-treated group) | cytolysis of target cells compared to the ginsenoside Rg3 and Rg1-treated group [2] | cytolysis of target cells [2] | RMA-S reduction effect relative to non-treated group ([3]; 8 hours) | removability (selective reduction rate of RMA-S) [3] | calcium flux of natural killer cells [4] | cytolysis of target cells [5] | CD107a expression [6] |
| --- | --- | --- | --- | --- | --- | --- | --- | --- | --- | --- | --- |
| CC(C)=CCC[C@](C)(O[C@@H]1O[C@H](CO)[C@@H](O)[C@H](O)[C@H]1O)[C@H]1CC[C@]2(C)[C@@H]1[C@H](O)C[C@@H]1[C@@]3(C)CC[C@H](O)C(C)(C)[C@@H]3[C@@H](O)C[C@]12C [ginsenoside F1] | high expression level of granzyme B | high expression level of perforin | about 1.5 times | about 2 times | remarkably excellent cytolysis | high cytolysis of target cells | 2 times | ≥ 70% | more effectively promotes calcium flux | high cytolysis of target cells | highest CD107a expression |
| CC(C)=CCC[C@](C)(O[C@@H]1O[C@H](CO)[C@@H](O)[C@H](O)[C@H]1O)[C@H]1CC[C@]2(C)[C@@H]1[C@H](O)C[C@@H]1[C@@]3(C)CC[C@H](O)C(C)(C)[C@@H]3[C@@H](O[C@@H]3O[C@H](CO)[C@@H](O)[C@H](O)[C@H]3O)C[C@]12C [ginsenoside Rg1, reference compound] | – | – | – | – | – | high cytolysis of target cells | – | about 52% | – | – | – |
| CC(C)=CCC[C@](C)(O)[C@H]1CC[C@]2(C)[C@@H]1[C@H](O)C[C@@H]1[C@@]3(C)CC[C@H](O[C@@H]4O[C@H](CO)[C@@H](O)[C@H](O)[C@H]4O[C@@H]4O[C@H](CO)[C@@H](O)[C@H](O)[C@H]4O)C(C)(C)[C@@H]3CC[C@]12C [ginsenoside Rg3, reference compound] | – | – | – | – | – | high cytolysis of target cells | – | – | – | high cytolysis of target cells | increased |
